The results in this text go back to PubChem BioAssay AID743403 (Broad Institute, 2014).

The structures appear in SMILES notation. Several values for one entry are separate records, joined by “and”; a condition that tells them apart may be missing. Identical values can stand only once. Activity calls are given as the source filed them. The rule behind the calls is not given here.

One experiment has as its system Cryptococcus neoformans cell lysis, plate reader. Briefly: fungal cell lysis by compounds – dry powder, set 2, dose response (AID 743403).
Settings: not given
One may read the AC50 as the concentration giving half of the maximal activity seen. On to `COc1ccccc1OCCn1c(SC)nc2ccccc21`, for which the AC50 is > 70 µM (inactive).
For `CC(C)(C)c1ccc(OCCn2cnc3ccccc32)c(Cl)c1`, the AC50 is 20.8 µM.
On to `Cc1ccc(OCCn2cnc3cc(C)c(C)cc32)cc1`, for which the AC50 was 15.9 µM.
For the compound `S=c1[nH]c2cccc(Cl)c2n1CCOc1ccccc1`, the AC50 is 8.43 µM.
Still for that read-out and setting: then `c1ccc2c(c1)ncn2CCOc1ccc2c(c1)CCC2`, with 3.76 µM; and `Fc1ccc2c(c1)[nH]c(=S)n2CCOc1ccccc1`, with 23.2 µM and 28.7 µM; and `Cc1ccc(C(C)C)c(OCCn2c(=S)[nH]c3ccccc32)c1`, with 4.95 µM.
On to `CC(C)Oc1ccc(OCCn2c(=S)[nH]c3ccccc32)cc1`, for which the AC50 was 29.7 µM.
Consider `NCC(=O)Nc1ccc(-n2nc(C(F)(F)F)cc2-c2ccc3c(ccc4ccccc43)c2)cc1`, for which the AC50 was 10.9 µM.
Regarding `Clc1ccc(OCCn2cnc3ccccc32)cc1`, the AC50 was 32.5 µM.
On the same count and under the same terms, to `Fc1cccc2c1[nH]c(=S)n2CCOc1ccccc1` belongs 26.2 µM; to `Cc1cc2ncn(CCOc3ccccc3)c2cc1C`, 25 µM.
Take `Cc1ccc2c(c1)[nH]c(=S)n2CCOc1ccccc1`: the AC50 is 17.4 µM.
Same read-out and setting: to `Cc1cccc(OCCn2c(=S)[nH]c3cc(F)ccc32)c1` belongs 14.8 µM and 15.5 µM; to `CC(C)Oc1cccc(OCCn2cnc3ccccc32)c1`, 29 µM.
Regarding `FC(F)(F)c1cccc(OCCn2cnc3ccccc32)c1`, the AC50 is > 70 µM (inactive).
Still for that read-out and setting: then `Cc1cccc(OCCn2c(=S)[nH]c3ccccc32)c1`, with 19.5 µM; and `CSc1nc2ccccc2n1CCOc1ccc(C)cc1`, with > 70 µM (inactive).
Consider `Clc1ccc(OCCn2cnc3ccccc32)c(Cl)c1`, for which the AC50 was 7.76 µM.
For `Clc1ccccc1OCCn1cnc2ccccc21`, the AC50 was 36.3 µM.
Same read-out and setting: to `Cc1ccc(OCCn2cnc3ccccc32)c(C)c1` belongs 7.4 µM.
In the case of `Cc1cc2ncn(CCOc3ccccc3C)c2cc1C`, the AC50 is 19.8 µM.
On to `Cc1cc2ncn(CCOc3ccc4c(c3)CCC4)c2cc1C`, for which the AC50 is 5.59 µM.
Regarding `CC(C)c1ccccc1OCCn1c(=S)[nH]c2ccccc21`, the AC50 was 11.9 µM.
Same read-out and setting: to `CC(C)(C)c1ccc(OCCn2cnc3ccccc32)cc1` belongs 30.5 µM.

Test system in a further experiment: not listed separately
Described as above. Conditions: Cryptococcus neoformans cell lysis, plate reader; at 35 µM (top of the series).
On to `Cc1cccc(OCCn2c(=S)[nH]c3c(F)cccc32)c1`, for which the activity change, negative = active was 1.05% (inactive).
Regarding `COc1ccc(OCCn2cnc3ccccc32)cc1`, the activity change, negative = active is -22.1% (inactive).
In the case of `CCc1nc2ccccc2n1CCOc1ccccc1`, the activity change, negative = active is 5.25% (inactive).
Take `Cc1ccc(C(C)C)c(OCCn2c(=O)[nH]c3ccccc32)c1`: the activity change, negative = active was -16.7% (inactive).
In the case of `c1ccc(-c2ccc(OCCn3cnc4ccccc43)cc2)cc1`, the activity change, negative = active was -12.5% (inactive).
Turning to `CC(C)c1ccccc1NCCn1c(=S)[nH]c2ccccc21`, the activity change, negative = active was 0.673% (inactive).
For the compound `S=c1[nH]c2cc(Cl)ccc2n1CCOc1ccccc1`, the activity change, negative = active was 27% (inactive).
For the compound `Cc1ccc(C(C)C)c(OCCn2c(CO)nc3ccccc32)c1`, the activity change, negative = active was -20.4% (inactive).
For the compound `CCCc1nc2ccccc2n1CCOc1ccccc1`, the activity change, negative = active was 0.352% (inactive).
The same measure, in the same setting: to `COCc1nc2ccccc2n1CCOc1ccc(C(C)(C)C)cc1` belongs 5.6% (inactive); to `Cc1ccc(C(C)C)c(OCCn2c(N)nc3ccccc32)c1`, 69.2% (inactive); to `O=S(=O)(c1ccc(OCCn2cnc3ccccc32)cc1)N1CCOCC1`, -21.8% (inactive).
Turning to `Cc1cccc(OCCn2c(=S)[nH]c3ccc(C(F)(F)F)cc32)c1`, the activity change, negative = active is 4.5% (inactive).
On to `CS(=O)(=O)c1ccc(OCCn2cnc3ccccc32)cc1`, for which the activity change, negative = active was -15.6% (inactive).
Same read-out and setting: to `COc1ccccc1OCCn1c(=S)[nH]c2ccccc21` belongs 3.55% (inactive); to `Fc1ccc(OCCn2c(=S)[nH]c3ccccc32)cc1`, -33.3% (inactive); to `CSc1nc2ccccc2n1CCOc1cc(C)ccc1C(C)C`, -4.35% (inactive).
Same read-out and setting: to `OCc1nc2ccccc2n1CCOc1ccccc1` belongs -9.32% (inactive).
Take `CCCCc1nc2ccccc2n1CCOc1ccccc1`: the activity change, negative = active is 0.005% (inactive).
On the same count and under the same terms, to `Cc1ccc(C(C)C)c(OCCn2c(NC#N)nc3ccccc32)c1` belongs -9.31% (inactive); to `CCSc1nc2ccccc2n1CCOc1ccccc1`, -22.6% (inactive).
